Assay results: EP0315197B1 (GÖDECKE AKTIENGESELLSCHAFT, priority 1987, dated 1989)
Structures can show the parent of a compound that is named as a salt. Where two headings read alike, the source gives them in different places.

Legend:
Hypertonie [1] = conditions: for Senkung der Herzfrequenz / Senkung des systolischen Blutdrucks im Sitzen: 3 weeks; for Abnahme des diastolischen Blutdrucks: after 3 weeks vs end of placebo phase, depending on time of measurement; for Response-Rate zum Zeitpunkt 8 Uhr: pre-dose; for globale Response-Rate (Anteil der Patienten mit Response zu allen drei Meßzeitpunkten): response = diastolic decrease of at least 10 mmHg or below 90 mmHg; for DBD sitzend / DBD stehend / HR sitzend / SBD sitzend / SBD stehend / HR stehend: mean (SD)
Source text: Die Patienten befanden sich stationär in Reha-Kliniken.
Nach Absetzen einer eventuellen antihypertensiven Vorbehandlung erhielten die Patienten zunächst 1 Woche Placebo.
Zur Beurteilung der Wirksamkeit wurde der diastolische Blutdruck im Sitzen zu 3 verschiedenen Tageszeiten (8, 11 und 17 Uhr) herangezogen. "Response" war definiert als eine Senkung des diastolischen Blutdrucks um mindestens 10 mmHg oder unter einen Wert von 90 mmHg.

Hypertonie [2] = conditions: for Response-Rate / Senkung des mittleren systolischen Blutdrucks im Sitzen: 8 weeks; for Senkung des diastolischen Blutdrucks im Sitzen: after 8 weeks vs placebo phase, morning pre-dose, mean; for DBD sitzend / DBD stehend / HR sitzend / HR stehend / SBD sitzend / SBD stehend: mean (SD)
Procedure: In diese multizentrische randomisierte Doppelblind-Parallel-Studie wurden wiederum Hypertoniker der WHO-Klasse I-III eingeschlossen, deren diastolischer Blutdruck am Ende der Placebophase höher als 95 mmHg war. Einer 2-wöchigen Placebophase folgte eine Behandlungsphase von 8 Wochen. Das Therapieschema von 1 x tgl. 180 mg bzw. 2 x tgl. 90 mg glich dem der vorangegangenen Studie. Zur Beurteilung der Wirksamkeit wurde die Senkung des diastolischen Blutdrucks bei der Messung am Morgen herangezogen, die jeweils nach 8 Wochen Behandlung erzielt worden war. Die Blutdruckmessung erfolgte wiederum vor der Medikation, um Aufschluß über die 24-h-Wirkung bei der einmal täglichen Behandlung zu erhalten.

[3] = Kölle 1983; cited from earlier work
[4] = 5 p.m., 1 × 180 mg (n = 40), Basislinie (end of placebo phase)
[5] = 5 p.m., 1 × 180 mg (n = 40), Endpunkt (3 weeks)
[6] = 5 p.m., 2 × 90 mg (n = 42), Basislinie (end of placebo phase)
[7] = 5 p.m., 2 × 90 mg (n = 42), Endpunkt (3 weeks)
[8] = 8 a.m., 1 × 180 mg (n = 40), Basislinie (end of placebo phase)
[9] = 8 a.m., 1 × 180 mg (n = 40), Endpunkt (3 weeks)
[10] = 8 a.m., 2 × 90 mg (n = 42), Basislinie (end of placebo phase)
[11] = 8 a.m., 2 × 90 mg (n = 42), Endpunkt (3 weeks)
[12] = 11 a.m., 1 × 180 mg (n = 40), Basislinie (end of placebo phase)
[13] = 11 a.m., 1 × 180 mg (n = 40), Endpunkt (3 weeks)
[14] = 11 a.m., 2 × 90 mg (n = 42), Basislinie (end of placebo phase)
[15] = 11 a.m., 2 × 90 mg (n = 42), Endpunkt (3 weeks)
[16] = 1 × 180 mg (n = 30), Basislinie (end of placebo phase)
[17] = 1 × 180 mg (n = 30), Endpunkt (8 weeks)
[18] = 2 × 90 mg (n = 30), Basislinie (end of placebo phase)
[19] = 2 × 90 mg (n = 30), Endpunkt (8 weeks)

## COc1ccc([C@@H]2Sc3ccccc3N(CCN(C)C)C(=O)[C@@H]2OC(C)=O)cc1 [Diltiazem, Diltiazemhydrochlorid]
Hypertonie [1]; 1 x 180 mg group
  Senkung der Herzfrequenz: 4-8 Schläge pro Minute
  Senkung des systolischen Blutdrucks im Sitzen: 19-22 mmHg
  Abnahme des diastolischen Blutdrucks: 13-16 mmHg
  Response-Rate zum Zeitpunkt 8 Uhr: 87,5%
  globale Response-Rate (Anteil der Patienten mit Response zu allen drei Meßzeitpunkten): 85%
Hypertonie [1]; 2 x 90 mg group
  Senkung der Herzfrequenz: 4-8 Schläge pro Minute
  Senkung des systolischen Blutdrucks im Sitzen: 15-18 mmHg
  Abnahme des diastolischen Blutdrucks: 13-16 mmHg
  Response-Rate zum Zeitpunkt 8 Uhr: 81%
  globale Response-Rate (Anteil der Patienten mit Response zu allen drei Meßzeitpunkten): 62%
Hypertonie [1]; [4]
  DBD sitzend: 99.2 (3.9) mmHg
  DBD stehend: 101.0 (4.8) mmHg
  HR sitzend: 76.5 (9.2) 1/min
  SBD sitzend: 158.9 (16.1) mmHg
  SBD stehend: 158.4 (16.3) mmHg
Hypertonie [1]; [5]
  DBD sitzend: 85.2 (8.8) mmHg
  DBD stehend: 88.8 (8.9) mmHg
  HR sitzend: 70.0 (7.2) 1/min
  HR stehend: 78.6 (7.7) 1/min
  SBD sitzend: 140.2 (14.2) mmHg
  SBD stehend: 138.5 (14.8) mmHg
Hypertonie [1]; [6]
  DBD sitzend: 99.9 (5.9) mmHg
  DBD stehend: 102.5 (5.8) mmHg
  HR sitzend: 77.0 (8.4) 1/min
  SBD stehend: 156.7 (15.0) mmHg
Hypertonie [1]; [7]
  DBD sitzend: 87.0 (10.7) mmHg
  DBD stehend: 87.7 (9.2) mmHg
  HR sitzend: 72.1 (8.1) 1/min
  HR stehend: 79.6 (9.1) 1/min
  SBD stehend: 138.6 (15.1) mmHg
Hypertonie [1]; [8]
  DBD sitzend: 98.3 (3.9) mmHg
  DBD stehend: 100.1 (7.1) mmHg
  HR sitzend: 76.8 (9.4) 1/min
  HR stehend: 87.2 (11.0) 1/min
  SBD sitzend: 161.3 (16.2) mmHg
  SBD stehend: 158.6 (16.4) mmHg
Hypertonie [1]; [9]
  DBD sitzend: 85.3 (8.3) mmHg
  DBD stehend: 87.3 (9.8) mmHg
  HR sitzend: 73.7 (7.1) 1/min
  HR stehend: 80.6 (7.4) 1/min
  SBD stehend: 141.0 (14.8) mmHg
Hypertonie [1]; [10]
  DBD sitzend: 99.8 (5.2) mmHg
  DBD stehend: 102.0 (5.8) mmHg
  HR sitzend: 76.4 (9.6) 1/min
  SBD stehend: 155.5 (17.9) mmHg
Hypertonie [1]; [11]
  DBD sitzend: 83.9 (10.7) mmHg
  DBD stehend: 88.5 (9.7) mmHg
  HR sitzend: 72.1 (8.2) 1/min
  HR stehend: 79.0 (8.0) 1/min
  SBD stehend: 137.4 (16.1) mmHg
Hypertonie [1]; [12]
  DBD sitzend: 98.5 (3.9) mmHg
  DBD stehend: 100.5 (5.8) mmHg
  HR sitzend: 75.1 (9.2) 1/min
  HR stehend: 84.4 (9.5) 1/min
  SBD sitzend: 159.2 (18.2) mmHg
  SBD stehend: 157.9 (19.6) mmHg
Hypertonie [1]; [13]
  DBD sitzend: 83.3 (8.2) mmHg
  DBD stehend: 87.1 (8.3) mmHg
  HR sitzend: 71.1 (7.0) 1/min
  HR stehend: 78.8 (6.9) 1/min
  SBD sitzend: 137.6 (12.2) mmHg
  SBD stehend: 137.1 (14.2) mmHg
Hypertonie [1]; [14]
  DBD sitzend: 100.2 (5.4) mmHg
  DBD stehend: 102.9 (5.6) mmHg
  HR sitzend: 76.0 (9.1) 1/min
  HR stehend: 83.6 (10.4) 1/min
  SBD sitzend: 158.1 (16.5) mmHg
  SBD stehend: 155.8 (17.7) mmHg
Hypertonie [1]; [15]
  DBD sitzend: 85.4 (9.5) mmHg
  DBD stehend: 87.3 (10.6) mmHg
  HR sitzend: 71.3 (7.8) 1/min
  HR stehend: 78.6 (8.6) 1/min
  SBD sitzend: 140.1 (15.8) mmHg
  SBD stehend: 135.7 (15.5) mmHg
Hypertonie [2]; 1 x 180 mg group
  Response-Rate: 80%
  Senkung des diastolischen Blutdrucks im Sitzen: 13 mmHg
Hypertonie [2]; 1 x 180 mg
  Senkung des mittleren systolischen Blutdrucks im Sitzen: 16 mmHg
Hypertonie [2]; [16]
  DBD sitzend: 100.7 (3.0) mmHg
  DBD stehend: 98.7 (3.2) mmHg
  HR sitzend: 72.5 (4.9) 1/min
  HR stehend: 74.9 (6.3) 1/min
  SBD sitzend: 175.1 (16.6) mmHg
  SBD stehend: 169.7 (19.8) mmHg
Hypertonie [2]; [17]
  DBD sitzend: 87.8 (9.1) mmHg
  DBD stehend: 84.8 (9.2) mmHg
  HR sitzend: 68.7 (4.4) 1/min
  HR stehend: 71.3 (5.2) 1/min
  SBD sitzend: 159.0 (18.8) mmHg
  SBD stehend: 150.5 (26.6) mmHg
Hypertonie [2]; 2 x 90 mg group
  Response-Rate: 70%
  Senkung des diastolischen Blutdrucks im Sitzen: 12 mmHg
Hypertonie [2]; 2 x 90 mg
  Senkung des mittleren systolischen Blutdrucks im Sitzen: 10 mmHg
Hypertonie [2]; [18]
  DBD sitzend: 99.1 (3.2) mmHg
  DBD stehend: 99.0 (3.1) mmHg
  HR sitzend: 73.5 (6.5) 1/min
  HR stehend: 75.9 (7.5) 1/min
  SBD sitzend: 169.4 (19.7) mmHg
  SBD stehend: 168.5 (22.1) mmHg
Hypertonie [2]; [19]
  DBD sitzend: 88.4 (8.0) mmHg
  DBD stehend: 86.9 (8.6) mmHg
  HR sitzend: 69.8 (6.0) 1/min
  HR stehend: 72.5 (7.0) 1/min
  SBD sitzend: 159.2 (23.7) mmHg
  SBD stehend: 156.7 (28.4) mmHg
[3]
  Halbwertzeit für die Elimination, α-Phase: 0,1 h
  Halbwertzeit für die Elimination, β-Phase: 2,1 h
  Halbwertzeit für die Elimination, γ-Phase: 9,8 h
